Measurements taken from patent US9180183B2, “Phospholipid drug analogs” (Telormedix SA, priority 2010, dated 2015).

Assays:
[1] = Solubility in organic solvents; assay type: physicochemical; settings: methanol, ethanol, dichloromethane, ethyl acetate, acetonitrile, acetone, chloroform
[2] = Stability study of compound A under storage conditions (HPLC); assay type: physicochemical
Description: (§2) At this point, a stability study was conducted on batch CH730/16/8g. The following conditions of storage were tested: • solid at room temperature (about 25° C.) and in presence of light • solid at external temperature (28-35° C.) under the sun-light • solid at +4° C. • solution in chloroform at room temperature and in presence of light • solution in chloroform at +4° C. • solution in chloroform at external temperature (28-35° C.) under the sun-light

[3] = HPLC retest of stored compound A samples; assay type: physicochemical; settings: for HPLC purity: room temperature, natural light
Description: as §2

[4] = Plasma stability in rat plasma (first experiment); assay type: in vitro ADME
Description: (§1) A 10 μl of MeOH was added to improve solubility. […] The supernatant fractions were analyzed by LC/MS/MS. […] Percent loss of substrate in incubations was determined to estimate the in vitro half life of the test compound. Samples were analyzed on a UPLC (Waters) interfaced with a Premiere XE Triple Quadrupole (Waters).

[5] = Plasma stability in rabbit plasma (first experiment); assay type: in vitro ADME
Description: as §1

[6] = Plasma stability in human plasma (first experiment); assay type: in vitro ADME
Description: as §1

[7] = Plasma stability in minipig plasma (first experiment); assay type: in vitro ADME
Description: as §1

[8] = test system: recombinant protein antigens from Plasmodium falciparum and Mycobacterium ulcerans; assay: Pilot immunization study with adjuvanted protein antigens in mice; assay type: in vivo; settings: three s.c. immunizations with 10 nMol adjuvant
Description: A pilot immunization study was conducted using Compound A and SC12 adjuvanted protein antigens. The immunization experiments were performed with two recombinant proteins expressed in E. coli. One antigen was derived from the malaria parasite Plasmodium falciparum and the other one from Mycobacterium ulcerans, which cause the ulcerative skin disease Buruli ulcer.

human whole blood = assay: Cytokine secretion in human whole blood assay (ELISA); assay type: cell-based; settings: for IL-12p40 levels: all donors
Description: Before drawing the blood, the compounds were added to 96 well round bottom plates in a 10× diluted sample at 20 ul. The compounds were diluted in RPMI media without serum but with antibiotics. Antibiotics were added at a 10× concentration. After drawing the blood, the whole blood sample was gently mixed to obtain a homogeneous sample, and 180 ul was added to each well.
All compounds were setup in concentrations at 0-0.01-0.03-0.1-0.5-2.0-10.0 micromolar as the final concentration. Vehicle control was DMSO control, where we used the highest concentration used for the compounds. After addition of blood, all plates were gently agitated at 37° C. and 5% CO2 until harvest.
Concentrations of cytokines were determined by ELISA from R&D Systems. The results were analyzed in Graph Pad Prism in order to prepare dose-response curves, and for determination of EC50 values. FACS analysis was made by using Becton-Dickinson FACSDiva software and subsequently illustrated in Graph Pad Prism.

[9] = test system: HLA-DR+/CD11c+/CD123- mDCs; assay: FACS analysis of myeloid DC activation in whole blood; assay type: cell-based, human; settings: 24 hours; 0.1 and 0.5 uM; three donors
Description: The FACS analysis for donor 1 and donor 2 was made on another day than donor 3. The compound concentrations were as follows:
The FACS analysis was used to identify whether the test compounds could induce activation of B cells, and two different subsets of dendritic cells, namely the myeloid CD11c+/CD123− DCs and the plasmacytoid CD11c−/CD123+ DCs. The following markers were studied to identify the activation status of the different subsets:
The FACS staining was performed according to the manufacturer's instructions. Lysis of red blood cells was performed before FACS staining in order to minimize auto-florescence. To include as many B cells and DCs in the study as possible the FACS analyses were performed on 500,000 cells in total for each staining. A P1 gate was set only to include relevant cells on FSC vs. SSC (see FIGS. 12-15). The results of the individual analysis were present as Mean Fluorescence Intensity
The analysis of myeloid DCs was based on HLA-DR+/CD11c+/CD123−cells, thus all analyzed cells was included in the HLA-DR+ (P3) gate and CD11c+/CD123− (Q4) gate (see gates in FIGS. 13-15).

[10] = test system: AY-27 rat bladder cancer cell-line
[11] = test system: 73 primary molecular targets (human recombinant receptor types and subtypes or membrane fraction from rodent tissue homogenates); assay: Radioligand binding assay among 73 primary molecular targets; settings: SC12 at 30 microM
[12] = test system: Cutaneous Squamous Cell Carcinoma (SCC) cell lines SCL-I, SCL-II, SCC-12, SCC-13; assay: Proapoptotic and cytotoxic effects on cutaneous SCC cell lines (real-time cell analysis, microscopy); assay type: cell-based, human; settings: cutaneous SCC cell lines
Description: SCC cells are grown under standard conditions (10% FBS).
Time and dose dependency of effects on total cell numbers have been investigated by real-time cell analysis, which is based on continuous monitoring of electric conductance in microtiter wells (E-plates, Roche), which corresponds to the cell numbers. […] For these assays 4 cell lines should be used to obtain a representative overview on the effects on SCC cells.

HLA-DR+/CD20+ B cells = assay: FACS analysis of B cell activation in whole blood; assay type: cell-based, human; settings: 24 hours; 2 and 10 uM; three donors
Description: The FACS staining was performed according to the manufacturer's instructions. Lysis of red blood cells was performed before FACS staining in order to minimize auto-florescence. To include as many B cells and DCs in the study as possible the FACS analyses were performed on 500,000 cells in total for each staining. […] The results of the individual analysis were present as Mean Fluorescence Intensity
The analysis of expression of the activation marker CD40 on B cells was made on double positive HLA-DR (MHC class II) (P4 gate) and CD20 cells (B cell marker) (P8 gate).

human PBMCs = assay: IL-6 secretion in human PBMCs, two batches of Compound A and SC12; assay type: cell-based; settings: PBMCs; 10-1-0,1-0.01 micromolar
Description: PBMCs were purified from two donors and plated into 96 well plates at 2×10^5 cells/well in RPMI media including human 2% heat inactivated AB serum, glutamine, Pen-strep and R-mercapto-ethanol. […] The conditioned media was removed for ELISA analyses for IL-6, and the EC50 value determined for each compound and each batch.
All compounds were tested in four concentrations (10-1-0, 1-0.01 micromolar).
Concentrations of IL-6 were determined by ELISA from R&D Systems using the Microsoft Excel software. The results were analyzed in Graph Pad Prism in order to prepare dose-response curves, and for determination of EC50 values.

[13] = Serum exposure after intravesical chronic treatment in mouse
Description: Serum samples were taken at time points: day 0, 2 hours, day 1, 24 hours, and day 6, 2 hours.
Samples were evaporated and re-suspended in 70 microliters of acetonitrile/methanol 1:1.

PBMCs = assay: IL-6 and TNF-alpha secretion in PBMCs (ELISA), Model 2; assay type: cell-based, human; settings: three donors
[14] = published data, Clarke et al. 2009; cited from earlier work
[15] = batch CH730/16/8G, solid, external T and light, t = 2 days
[16] = batch CH730/16/8G, solid, external T and light, t = 6 days
[17] = batch CH730/16/8G, solution in CHCl3, RT and light, t = 0
[18] = batch CH730/16/8G, solution in CHCl3, RT and light, t = 1 day
[19] = batch CH730/16/8G, solution in CHCl3, RT and light, t = 5 days
[20] = batch CH730/16/8G, solution in CHCl3, RT and light, t = 7 days
[21] = batch CH730/16/8G, solution in CHCl3, RT and light, t = 11 days
[22] = batch CH730/16/8G, solution in CHCl3, T about 30° C. without light, t = 1 day
[23] = batch CH730/16/8G, solution in CHCl3, external T and light, t = 1 day
[24] = whole blood, 6 hours incubation
[25] = whole blood, 24 hours incubation

COCCOc1nc(N)c2[nH]c(=O)n(Cc3ccc(C(=O)O)cc3)c2n1 [Acid 7, 4-((6-amino-2-(2-methoxyethoxy)-8-oxo-7H-purin-9(8H)-yl)methyl)benzoic acid]
solubility in common solvents [1]: not soluble

CCCCCCCC/C=C\CCCCCCCC(=O)OCC(COP(=O)(O)OCCNC(=O)c1ccc(Cn2c(=O)[nH]c3c(N)nc(OCCOC)nc32)cc1)OC(=O)CCCCCCC/C=C\CCCCCCCC (stereo not shown) [Compound A, 2-(4-((6-amino-2-(2-methoxyethoxy)-8-oxo-7H-purin-9(8H)-yl)methyl)benzamido)ethyl 2,3-bis(oleoyloxy)propyl phosphate]
degradation (in words) ([2]; T>25° C. and in the presence of light): rapid degradation | HPLC % at RRT = 1 (main peak) [2, 15]: 37.6% | HPLC % of impurity at RRT = 1.06 [2, 15]: 9.2% | HPLC % of impurity at RRT = 1.11 [2, 15]: 27.9% | HPLC % of impurity at RRT = 1.26 [2, 15]: 14.8% | HPLC % at RRT = 1 (main peak) [2, 16]: 35.4% | HPLC % of impurity at RRT = 1.06 [2, 16]: 17.8% | HPLC % of impurity at RRT = 1.14 [2, 16]: 7.2% | HPLC % of impurity at RRT = 1.17 [2, 16]: 12.6% | HPLC % of impurity at RRT = 1.28 [2, 16]: 5.5% | HPLC % at RRT = 1 (main peak) [2, 17]: 81.4% | HPLC % of impurity at RRT = 1.11 [2, 17]: 8.6% | HPLC % of impurity at RRT = 1.23 [2, 17]: 4.2% | HPLC % at RRT = 1 (main peak) [2, 18]: 80.9% | HPLC % of impurity at RRT = 1.11 [2, 18]: 8.7% | HPLC % of impurity at RRT = 1.24 [2, 18]: 4.4% | HPLC % at RRT = 1 (main peak) [2, 19]: 79.3% | HPLC % of impurity at RRT = 1.10 [2, 19]: 9.9% | HPLC % of impurity at RRT = 1.24 [2, 19]: 4.2% | HPLC % at RRT = 1 (main peak) [2, 20]: 80.5% | HPLC % of impurity at RRT = 1.11 [2, 20]: 8.7% | HPLC % of impurity at RRT = 1.27 [2, 20]: 3.9% | HPLC % at RRT = 1 (main peak) [2, 21]: 82.0% | HPLC % of impurity at RRT = 1.16 [2, 21]: 6.9% | HPLC % of impurity at RRT = 1.29 [2, 21]: 3.7% | HPLC % at RRT = 1 (main peak) [2, 22]: 80.7% | HPLC % of impurity at RRT = 1.11 [2, 22]: 8.6% | HPLC % of impurity at RRT = 1.27 [2, 22]: 3.8% | HPLC % at RRT = 1 (main peak) [2, 23]: 80.3% | HPLC % of impurity at RRT = 1.11 [2, 23]: 8.0% | HPLC % of impurity at RRT = 1.27 [2, 23]: 3.2% | stability (in words) ([3]; at room temperature and/or in the presence of light): not a stable compound | HPLC purity ([3]; Test date: Jun. 10, 2009): Purity: 57.5% | HPLC purity ([3]; Test date: Jun. 11, 2009): Purity: 81.4% | HPLC purity ([3]; Test date: May 20, 2009): Purity: 89.6% | HPLC purity ([3]; tested Jun. 10, 2009, Retest date: Jun. 16, 2009): Purity: 44.8% | HPLC purity ([3]; tested Jun. 11, 2009, Retest date: Jun. 18, 2009): Purity: 71.5% | HPLC purity ([3]; tested May 20, 2009, Retest date: Jun. 12, 2009): Purity: 67.2% | HPLC purity ([3]; tested May 20, 2009, Retest date: Jun. 17, 2009): Purity: 58.9% | stability classification [4]: unstable | stability classification [5]: unstable | stability classification [6]: unstable | stability classification [7]: unstable | local side effects [8]: No local side effects | range of IL-6 secretion (human whole blood; whole blood, three donors): 4000 to 8000 pg/mL | ranges of IFN-alpha secreted (human whole blood; whole blood, three donors): 1000 to 2000 pg/mL | IL-12p40 levels (human whole blood; [24]): 8.000 to 12.000 pg/mL | IL-12p40 levels (human whole blood; [25]): 20.000 to 25.000 pg/mL

CC(C)Cn1cnc2c(N)nc3ccccc3c21 [Imiquimod, reference compound]
CD80 expression in mDCs (MFI, in words) [9]: weak expression of CD80 in donor 1 and 2 | Range of weight of the rat bladders ([10]; 0.5 ml intravesical instillation (Imiquimod 0.1%, SC12 0.38%) on day 2 and 5, day 12): 0.0814-0.1891 grams | signs of toxicity (in words) ([10]; intravesical instillation on day 2 and 5): No signs of toxicity | Tumor free (% of rats) ([10]; of 14 rats per group, day 12): 35.7% | Tumor free (number of rats) ([10]; of 14 rats per group, day 12): 5 | pT2 Tumor (% of rats) ([10]; of 14 rats per group, day 12): 64.3% | pT2 Tumor (number of rats) ([10]; of 14 rats per group, day 12): 9 | binding to receptors associated with pain-related syndromes (e.g. adenosine and sodium channel) [11]: shown to bind | cell numbers (real-time cell analysis, electric conductance) [12]: reduced cell numbers | CD40 expression (MFI, in words) (HLA-DR+/CD20+ B cells): increased expression in all three donors | IL-6 induction (in words) (human PBMCs): only active in inducing IL-6 at the highest concentration | induction of DC secreted cytokines (in words) (human whole blood; supernatant from whole blood cell assays): weak inducer | IL-6 secretion (in words) (human whole blood; whole blood, 6 h incubation): low and insignificant amounts of IL-6 | IFN-alpha secretion (in words) (human whole blood; [24]): did not induce IFN-alpha secretion | IL-10 production (in words) (human whole blood; [24]): no IL-10 production was seen | IL-12p40 secretion (in words) (human whole blood; [24]): did not induce IL-12p40 secretion | IL-12p40 secretion (in words) (human whole blood; [25]): did not induce IL-12p40 | Imiquimod levels in serum, Mean ± S.D. ([13]; intravesical 0.1%, Day 1, 24 hours, LLOQ 2.5 ng/ml): <LLOQ | accumulation in serum (in words) ([13]; intravesical chronic treatment, 6 days): no accumulation | induction of IL-6 and TNF-alpha secretion (in words) (PBMCs): weak ability to induce the cytokines

CCOCc1nc2c(N)nc3ccccc3c2n1CC(C)(C)O [Resiquimod]
IFN-alpha secreted [14]: < 200 pg/mL
